Data published in patent US20260053811A1, “METHODS OF TREATING HYPERTENSION IN OBESE SUBJECTS” (Mineralys Therapeutics, Inc., priority 2022, published 2026).

Tested on: hypertensive subjects
Assay: Adverse events (TEAEs, SAEs, AESI, study drug discontinuation, dose modification);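 further: counts of spontaneously reported adverse events in the Safety Analysis Set, subjects grouped by treatment actually received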
Assay type: in vivo, human
Source text: In analyses performed on the Safety Analysis Set, subjects will be analyzed according to their actual treatment received.

CC(=O)N[C@H]1CC[C@H](NC(=O)CN2CCN(c3nncc(-c4ccc(C)cc4)n3)CC2)CC1 [Compound A HBr]
TEAE leading to permanent discontinuation from study drug: Orthostatic hypotension (Part 1, 100 mg QD (N = 30)): 0 n (%)
TEAE leading to permanent discontinuation from study drug: Vascular disorders (Part 1, 100 mg QD (N = 30)): 1 (3.3) n (%)
On-treatment TEAE: Blood and lymphatic system disorders (Part 1, Active (N = 133)): 2 (1.5) n (%)
On-treatment TEAE: Blood and lymphatic system disorders, Mild (Part 1, Active (N = 133)): 2 (1.5) n (%)
On-treatment TEAE: Blood creatinine increased (Part 1, Active (N = 133)): 3 (2.3) n (%)
On-treatment TEAE: Blood creatinine increased, Mild (Part 1, Active (N = 133)): 3 (2.3) n (%)
On-treatment TEAE: Cardiac disorders (Part 1, Active (N = 133)): 4 (3.0) n (%)
On-treatment TEAE: Cortisol decreased (Part 1, Active (N = 133)): 3 (2.3) n (%)
On-treatment TEAE: Cortisol decreased, Mild (Part 1, Active (N = 133)): 3 (2.3) n (%)
On-treatment TEAE: Dizziness (Part 1, Active (N = 133)): 3 (2.3) n (%)
On-treatment TEAE: Gastrointestinal disorders (Part 1, Active (N = 133)): 6 (4.5) n (%)
On-treatment TEAE: Gastrointestinal disorders, Mild (Part 1, Active (N = 133)): 5 (3.8) n (%)
On-treatment TEAE: General disorders and administration site conditions (Part 1, Active (N = 133)): 5 (3.8) n (%)
On-treatment TEAE: General disorders and administration site conditions, Mild (Part 1, Active (N = 133)): 2 (1.5) n (%)
On-treatment TEAE: Glomerular filtration rate decreased (Part 1, Active (N = 133)): 9 (6.8) n (%)
On-treatment TEAE: Glomerular filtration rate decreased, Mild (Part 1, Active (N = 133)): 8 (6.0) n (%)
On-treatment TEAE: Headache (Part 1, Active (N = 133)): 3 (2.3) n (%)
On-treatment TEAE: Headache, Mild (Part 1, Active (N = 133)): 3 (2.3) n (%)
On-treatment TEAE: Hyperkalaemia (Part 1, Active (N = 133)): 31 (23.3) n (%)
On-treatment TEAE: Hyperkalaemia, Mild (Part 1, Active (N = 133)): 26 (19.5) n (%)
On-treatment TEAE: Hyperkalaemia, Moderate (Part 1, Active (N = 133)): 4 (3.0) n (%)
On-treatment TEAE: Hyperkalaemia, Severe (Part 1, Active (N = 133)): 1 (0.8) n (%)
On-treatment TEAE: Hypertension (Part 1, Active (N = 133)): 5 (3.8) n (%)
On-treatment TEAE: Hypertension, Moderate (Part 1, Active (N = 133)): 3 (2.3) n (%)
On-treatment TEAE: Infections and infestations (Part 1, Active (N = 133)): 11 (8.3) n (%)
On-treatment TEAE: Infections and infestations, Mild (Part 1, Active (N = 133)): 5 (3.8) n (%)
On-treatment TEAE: Infections and infestations, Moderate (Part 1, Active (N = 133)): 6 (4.5) n (%)
On-treatment TEAE: Investigations (Part 1, Active (N = 133)): 21 (15.8) n (%)
On-treatment TEAE: Investigations, Mild (Part 1, Active (N = 133)): 17 (12.8) n (%)
On-treatment TEAE: Investigations, Moderate (Part 1, Active (N = 133)): 4 (3.0) n (%)
On-treatment TEAE: Metabolism and nutrition disorders (Part 1, Active (N = 133)): 34 (25.6) n (%)
On-treatment TEAE: Metabolism and nutrition disorders, Mild (Part 1, Active (N = 133)): 29 (21.8) n (%)
On-treatment TEAE: Metabolism and nutrition disorders, Moderate (Part 1, Active (N = 133)): 4 (3.0) n (%)
On-treatment TEAE: Nervous system disorders (Part 1, Active (N = 133)): 8 (6.0) n (%)
On-treatment TEAE: Nervous system disorders, Mild (Part 1, Active (N = 133)): 6 (4.5) n (%)
On-treatment TEAE: Orthostatic hypotension (Part 1, Active (N = 133)): 3 (2.3) n (%)
On-treatment TEAE: Orthostatic hypotension, Mild (Part 1, Active (N = 133)): 3 (2.3) n (%)
On-treatment TEAE: Psychiatric disorders (Part 1, Active (N = 133)): 3 (2.3) n (%)
On-treatment TEAE: Psychiatric disorders, Moderate (Part 1, Active (N = 133)): 3 (2.3) n (%)
On-treatment TEAE: Urinary tract infection (Part 1, Active (N = 133)): 7 (5.3) n (%)
On-treatment TEAE: Urinary tract infection, Mild (Part 1, Active (N = 133)): 4 (3.0) n (%)
On-treatment TEAE: Vascular disorders (Part 1, Active (N = 133)): 9 (6.8) n (%)
On-treatment TEAE: Vascular disorders, Mild (Part 1, Active (N = 133)): 5 (3.8) n (%)
On-treatment TEAE: Vascular disorders, Moderate (Part 1, Active (N = 133)): 4 (3.0) n (%)
On-treatment TEAE: any, Mild (Part 1, Active (N = 133)): 47 (35.3) n (%)
On-treatment TEAE: any, Moderate (Part 1, Active (N = 133)): 25 (18.8) n (%)
On-treatment TEAE: any, Severe (Part 1, Active (N = 133)): 1 (0.8) n (%)
Subjects with any On-treatment TEAEs leading to withdrawal from study drug (Part 1, Active (N = 133)): 10 (7.5) n (%)
TEAE leading to permanent discontinuation from study drug: Activated partial thromboplastin time prolonged (Part 1, Active (N = 133)): 1 (0.8) n (%)
TEAE leading to permanent discontinuation from study drug: Cardiac disorders (Part 1, Active (N = 133)): 1 (0.8) n (%)
TEAE leading to permanent discontinuation from study drug: Coronary artery disease (Part 1, Active (N = 133)): 1 (0.8) n (%)
TEAE leading to permanent discontinuation from study drug: Dizziness (Part 1, Active (N = 133)): 1 (0.8) n (%)
TEAE leading to permanent discontinuation from study drug: Hyperkalaemia (Part 1, Active (N = 133)): 5 (3.8) n (%)
TEAE leading to permanent discontinuation from study drug: Hypertension (Part 1, Active (N = 133)): 1 (0.8) n (%)
TEAE leading to permanent discontinuation from study drug: Hypotension (Part 1, Active (N = 133)): 1 (0.8) n (%)
TEAE leading to permanent discontinuation from study drug: Investigations (Part 1, Active (N = 133)): 1 (0.8) n (%)
TEAE leading to permanent discontinuation from study drug: Metabolism and nutrition disorders (Part 1, Active (N = 133)): 5 (3.8) n (%)
TEAE leading to permanent discontinuation from study drug: Nervous system disorders (Part 1, Active (N = 133)): 1 (0.8) n (%)
TEAE leading to permanent discontinuation from study drug: Orthostatic hypotension (Part 1, Active (N = 133)): 1 (0.8) n (%)
TEAE leading to permanent discontinuation from study drug: Vascular disorders (Part 1, Active (N = 133)): 3 (2.3) n (%)
Dose titration: Hyperkalemia, subjects n (%) (Part 1 All active (N 159)): 6 (3.8%)
Dose titration: Hyponatremia, subjects n (%) (Part 1 All active (N 159)): 0
Dose titration: Other possibly related, subjects n (%) (Part 1 All active (N 159)): 0
Dose titration: Other unrelated, subjects n (%) (Part 1 All active (N 159)): 1 (0.6%)
Study drug discontinuation: Hyperkalemia, subjects n (%) (Part 1 All active (N 159)): 6 (3.8%)
Study drug discontinuation: Hyponatremia, subjects n (%) (Part 1 All active (N 159)): 0
Study drug discontinuation: Hypotension, subjects n (%) (Part 1 All active (N 159)): 2 (1.2%)
Study drug discontinuation: Other possibly related, subjects n (%) (Part 1 All active (N 159)): 1 (0.6%)
Study drug discontinuation: Other unrelated, subjects n (%) (Part 1 All active (N 159)): 11 (6.9%)
Deaths (Part 1 or Part 2): No deaths were reported
Subjects with TEAE resulting in dose modification (Part 2): 7
Dose titration: Hyperkalemia, subjects n (%) (Part 2 100mg QD (N 31)): 1 (3.2%)
Dose titration: Hyponatremia, subjects n (%) (Part 2 100mg QD (N 31)): 1 (3.2%)
Dose titration: Other possibly related, subjects n (%) (Part 2 100mg QD (N 31)): 0
Dose titration: Other unrelated, subjects n (%) (Part 2 100mg QD (N 31)): 0
Study drug discontinuation: Hyperkalemia, subjects n (%) (Part 2 100mg QD (N 31)): 0
Study drug discontinuation: Hyponatremia, subjects n (%) (Part 2 100mg QD (N 31)): 1 (3.4%)
Study drug discontinuation: Hypotension, subjects n (%) (Part 2 100mg QD (N 31)): 1 (2.8%)
Study drug discontinuation: Other possibly related, subjects n (%) (Part 2 100mg QD (N 31)): 0
Study drug discontinuation: Other unrelated, subjects n (%) (Part 2 100mg QD (N 31)): 1 (2.8%)
Subjects with any On-treatment TEAEs leading to withdrawal from study drug (Part 2, 100 mg QD (N = 31)): 2 (6.5) n (%)
TEAE leading to permanent withdrawal from study drug: Glomerular filtration rate decreased (Part 2, 100 mg QD (N = 31)): 1 (3.2) n (%)
TEAE leading to permanent withdrawal from study drug: Hyponatraemia (Part 2, 100 mg QD (N = 31)): 1 (3.2) n (%)
TEAE leading to permanent withdrawal from study drug: Investigations (Part 2, 100 mg QD (N = 31)): 1 (3.2) n (%)
TEAE leading to permanent withdrawal from study drug: Metabolism and nutrition disorders (Part 2, 100 mg QD (N = 31)): 1 (3.2) n (%)
TEAE leading to permanent withdrawal from study drug: Muscle spasms (Part 2, 100 mg QD (N = 31)): 1 (3.2) n (%)
TEAE leading to permanent withdrawal from study drug: Musculoskeletal and connective tissue disorders (Part 2, 100 mg QD (N = 31)): 1 (3.2) n (%)
Subjects with muscle spasms (PT) (Part 2, 100 mg QD cohort): 3 (9.7%)
Subjects with ≥1 moderate on-treatment TEAE (Part 2, 100 mg QD cohort): 12 (38.7%)
Dose titration: Hyperkalemia, subjects n (%) (Total active (N 190)): 7 (4.1%)
Dose titration: Hyponatremia, subjects n (%) (Total active (N 190)): 1 (0.5%)
Dose titration: Other possibly related, subjects n (%) (Total active (N 190)): 0
Dose titration: Other unrelated, subjects n (%) (Total active (N 190)): 1 (0.5%)
Study drug discontinuation: Hyperkalemia, subjects n (%) (Total active (N 190)): 6 (3.2%)
Study drug discontinuation: Hyponatremia, subjects n (%) (Total active (N 190)): 1 (0.5%)
Study drug discontinuation: Hypotension, subjects n (%) (Total active (N 190)): 3 (1.6%)
Study drug discontinuation: Other possibly related, subjects n (%) (Total active (N 190)): 1 (0.5%)
Study drug discontinuation: Other unrelated, subjects n (%) (Total active (N 190)): 12 (6.3%)
Subjects who developed orthostatic hypotension (fall of 20 mmHg SBP or 10 mmHg DBP sitting to standing): three
Episodes of severe hyperkalemia (pooled (Part 1 and Part 2) 100 mg QD safety set (n=60)): no episodes of severe hyperkalemia
Subjects with hypotension related to treatment (two in 100 mg QD cohorts (Part 1, Part 2), one in 12.5 mg BID): three
Serious adverse events (SAEs) related to the study medication (whole trial (Example 1 analysis)): No serious adverse events (SAEs) related to the study medication were observed
